The target of the assay is Recombinant Human MMP-13 (Homo sapiens, UniProt P45452). The assay can be described thus: MMP-13 inhibitory activity, fluorescent synthetic substrate method. The assay is classed as biochemical. The conditions noted are these: 8 nM APMA-activated enzyme, 10 μM substrate, 37° C., 1 hour. The procedure: The MMP-13 inhibitory activity was measured by a method using a fluorescent synthetic substrate. To a buffer solution for measurement (100 mM Tris-HCl, pH 7.4, 100 mM NaCl, 10 mM CaCl2) containing Recombinant Human MMP-13 (manufactured by Takeda Pharmaceuticals, Inc.) activated by APMA (1 mM) in a concentration of 8 nM, the compound dissolved in DMSO was added in a predetermined concentration. Subsequently, a fluorescent synthetic substrate (7-methoxycoumarin-4-yl)acetyl-Pro-Leu-Gly-Leu-(3-[2,4-dinitrophenyl]-L-2,3-diaminopropionyl)-Ala-Arg-NH2 was added thereto in a concentration of 10 μM to initiate the reaction. After incubation at 37° C. for 1 hour, a 500 mM acetate buffer (pH 3.0) was added to stop the reaction. The increase in the fluorescence intensity due to substrate decomposition was measured employing a CORONA MTP-32 plate reader under the condition of Ex/Em=340/400. The rate of inhibition of the enzymatic inhibitory activity was determined from the following equation: Rate of Inhibition (%)=100−(X−C)/(T−C)×100
T: Fluorescence intensity of the control with addition of enzyme and without addition of the compound
C: Fluorescence intensity of the control without addition of enzyme and without addition of the compound
X: Fluorescence intensity with addition of enzyme and with addition of the compound

What is called inhibition is the change of the read-out against control, counted positive when it falls.

Where a name gives a salt, the structure may show the parent alone.

For the compound `CCc1ccc(Oc2ccc(CN3C[C@H](S)CC3=O)cn2)cc1` [Example 12, (4R)-1-{[6-(4-ethylphenoxy)pyridin-3-yl]methyl}-4-mercaptopyrrolidin-2-one], the inhibition at 0.0015 µM (compound 1.5 nM, read-out: rate of inhibition for MMP-13 activity) was 50%.

Consider `CS(=O)(=O)Nc1ccc(Oc2ccc(CN3C[C@H](S)CC3=O)cn2)cc1` [Example 15], for which, under “compound 1.5 nM”, the “rate of inhibition for MMP-13 activity” value is 67%.

As to `O=C1C[C@@H](S)CN1Cc1ccc(Oc2ccc(F)cc2)nc1` [Example 2, (4R)-1-{[6-(4-fluorophenoxy)pyridin-3-yl]methyl}-4-mercaptopyrrolidin-2-one hydrochloride], the inhibition at 0.003 µM (compound 3 nM, read-out: rate of inhibition for MMP-13 activity) worked out at 63%.

The values above are taken from patent US20050165064A1, “Novel thiol derivative, process for producing the same and use thereof” (priority 2003, published 2005).
